≈ marks a conversion by molar mass, not a printed value.
Assays:
[1] = Inhibition of Clostridium perfringens neuraminidase 4-methylumbelliferyl-alpha-D-Nacetylneuraminic acid sodium salt hydrate as substrate by fluorometry
[2] = Inhibition of Clostridium perfringens neuraminidase by Dixon plot
Neuraminidase = Neuraminidase (Influenza A virus (strain A/USSR/90/1977 H1N1), UniProt P03469); test: Inhibition of recombinant Influenza A virus H1N1 neuraminidase using 4-methylumbelliferyl-alpha-D-Nacetylneuraminic acid sodium salt hydrate as substrate by fluorometry
Clostridium perfringens [3] = test: Antibacterial activity against Clostridium perfringens in tryptic soy broth after 24 hrs; format: functional
Clostridium perfringens [4] = test: Inhibition of Clostridium perfringens neuraminidase 4-methylumbelliferyl-alpha-D-Nacetylneuraminic acid sodium salt hydrate as substrate at 100 uM by fluorometry

Neuraminidase, sequence (P03469 whole entry): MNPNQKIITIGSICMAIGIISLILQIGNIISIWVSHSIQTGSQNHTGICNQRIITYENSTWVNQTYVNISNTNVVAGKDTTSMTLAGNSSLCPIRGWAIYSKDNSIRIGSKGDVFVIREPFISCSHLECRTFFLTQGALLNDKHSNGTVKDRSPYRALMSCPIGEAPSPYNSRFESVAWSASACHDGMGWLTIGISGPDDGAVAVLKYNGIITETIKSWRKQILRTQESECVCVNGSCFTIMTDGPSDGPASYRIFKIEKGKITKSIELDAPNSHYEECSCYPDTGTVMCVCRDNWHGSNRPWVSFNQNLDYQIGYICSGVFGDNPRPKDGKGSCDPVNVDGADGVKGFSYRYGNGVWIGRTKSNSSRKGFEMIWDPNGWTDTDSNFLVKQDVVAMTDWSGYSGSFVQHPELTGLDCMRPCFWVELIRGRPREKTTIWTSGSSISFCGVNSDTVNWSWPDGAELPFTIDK

| SMILES | IC50 [1] | Ki [2] | IC50 (Neuraminidase) | MIC (Clostridium perfringens [3]) | inhibition (Clostridium perfringens [4]) |
| --- | --- | --- | --- | --- | --- |
| COc1cc2c(cc1OC)-c1c(C)c3cc(OC)c(OC)cc3c[n+]1CC2 | 32.6 µM | – | – | – | – |
| COc1cc2c(cc1OC)-c1cc3ccc(OC)c(OC)c3c[n+]1CC2 [PALMITINE] | 12.8 µM | 16.9 µM | 33.1 µM | 44.7 µM | – |
| COc1ccc2cc3[n+](cc2c1OC)CCc1cc2c(cc1-3)OCO2 [BERBERINE] | 13.5 µM | 11.9 µM | 38.5 µM | 52.2 µM | – |
| COc1cc(/C=C/C(=O)CC(=O)/C=C/c2ccc(O)c(OC)c2)ccc1O [CURCUMIN] | 6 µM | – | – | – | – |
| c1c2c(cc3c1OCO3)-c1cc3cc4c(cc3c[n+]1CC2)OCO4 | 65.2 µM | – | 126 µM | – | – |
| c1c2c(cc3c1OCO3)-c1cc3ccc4c(c3c[n+]1CC2)OCO4 [COPTISINE] | 25.1 µM | – | 25.3 µM | – | – |
| COc1cc2c(cc1OC)-c1c(OC)c(OC)cc3c1[C@H](C2)N(C)CC3 [GLAUCINE] | 96.9 µM | – | – | – | – |
| COc1cc2c(cc1O)CC[n+]1cc3c(OC)c(OC)ccc3c(C)c1-2 | 41.3 µM | – | 80.5 µM | – | – |
| COc1cc2c(cc1O)CC[n+]1cc3c(OC)c(OC)ccc3cc1-2 [JATRORRHIZINE] | 37 µM | – | 66.2 µM | – | – |
| c1cc2c(c3c1CC1c4cc5c(cc4CCN1C3)OCO5)OCO2 (configuration not stated) | – | – | – | – | 4.7% |
| COc1cc2c(cc1OC)[C@H]1[C@@H](C)c3ccc(OC)c(OC)c3CN1CC2 | – | – | – | – | 12.7% |
| CC1(C)S[C@@H]2[C@H](NC(=O)[C@H](N)c3ccccc3)C(=O)N2[C@H]1C(=O)O [AMPICILLIN] | – | – | – | 0.3 µM (≈ 0.105 µg/mL) | – |

Source: ChEMBL document CHEMBL3351551, “Neuraminidase inhibitory activities of quaternary isoquinoline alkaloids from Corydalis turtschaninovii rhizome” (Bioorg Med Chem, 2014)
